{
  "source": "patent US20250268166A1",
  "about": "“ALS-INHIBITOR HERBICIDE TOLERANT BETA VULGARIS HYBRIDS WITH INCREASED HETEROSIS” (BAYER AKTIENGESELLSCHAFT, priority 2021, published 2025)",
  "system": "B. vulgaris plants comprising the BvALS_W569L allele",
  "assay": "Sensitivity of B. vulgaris plants to ALS inhibitor herbicide (BvALS_W569L allele vs wild type allele)",
  "type": "in vivo, Beta vulgaris",
  "description": "Beta vulgaris plants comprising the BvALS_W569L allele are less sensitive to an ALS inhibitor, more preferably it is at least 100 times less sensitive, more preferably, 500 times, even more preferably 1000 times and most preferably […] 2000 times than Beta vulgaris plants comprising the wild-type allele. Less sensitive when used herein may, vice versa, be seen as “more tolerable” or “more resistant”. Similarly, “more tolerable” or “more resistant” may, vice versa, be seen as “less sensitive”. For example, B. vulgaris plants comprising the BvALS_W569L allele are at least 2000 times less sensitive to the ALS inhibitor herbicide foramsulfuron (a member of the ALS inhibitor subclass “sulfonylurea herbicides”) compared to B. vulgaris plants comprising a BvALS wild type allele.",
  "data": [
    {"smiles": "COc1cc(OC)nc(NC(=O)NS(=O)(=O)c2cc(NC=O)ccc2C(=O)N(C)C)n1", "note": "[foramsulfuron]", "values": [
      {"measurement": "times less sensitive to the ALS inhibitor herbicide compared to B. vulgaris plants comprising a BvALS wild type allele", "value": "at least 2000 times"}
    ]}
  ]
}
